Experimental data as given in patent US8927521B2, “Cyclic adenosine monophosphates for reducing the formation of adhesions” (University of Pittsburgh—of the Commonwealth System of …, priority 2008, dated 2015).
“And” between values parts separate entries of the source, which are not always exact repeats. Identical values can stand only once. Each block holds one compound with its values, some of them ahead of it.

What was measured:
[1] = test system: P1 adenosine receptor subtypes (A1, A2A, A2B and A3); details: at 1 mM; cited from earlier work
[2] = test system: post-surgical adhesion formation; assay: Post-surgical adhesion formation in mice, all groups co-treated with 1,3-dipropyl-8-(p-sulfophenyl)xanthine (Example 2); assay type: in vivo; details: for adhesion score (mean±standard error of mean): scale 1 to 5; for adhesion scores (individual animals): one value per mouse
Protocol: (§1) This protocol examined the effects of several treatments on post-surgical adhesion formation. Six-week-old C57Bl mice were fasted overnight and then anesthetized the following day with an intraperitoneal injection of pentobarbital (50 mg/kg). The surgical procedures were conducted under aseptic conditions. The abdomen was shaved to remove hair, and the incision site was cleaned with betadine solution. Surgery was performed under a laminar flow hood using instruments sterilized in a glass bead sterilizer. The abdomen was opened via a midline incision of approximately 10 mm. The cecum was exposed and placed on sterile gauze. […] After 30 seconds, the ethanol was washed from the cecum surface with 1-ml of test solution. Next, the cecum was returned to the peritoneal cavity and placed in its natural position. Then 1-ml of test solution was placed in the peritoneal cavity, and the abdominal incision was repaired by suturing. […] The animals were placed under a warming lamp and observed until they regained consciousness. After regaining consciousness, the mice were placed back in the housing cage.
Ten days later, the animals were again anesthetized with pentobarbital, and the abdomen was surgically opened to provide a clear view of the intestines. The severity of adhesion formation was assessed on a semi-quantitative scale from 1 to 5, taking into account the extent of adhesion formation (with 1 being the least amount of adhesion formation and 5 being the most amount of adhesion formation). Adhesions were identified visually and by noting the difficulty of separating adjacent surfaces. Adhesion scores were assigned by an individual blinded to (that is unaware of) the test solutions used to treat the animals. The scoring was based on the extent of adhesion of the cecum to itself and to adjacent tissues or organs. A score of 1 was assigned to animals when there was only minimal (approximately >10 to <20%) adhesion of the cecum to itself (that is within the cecum core) with no adhesion of the cecum to other adjacent structures (abdominal wall, liver or intestines). A score of 2 was assigned when there was mild (approximately >20 to <30%) adhesion of the cecum to itself or when there was minimal (approximately >10 to <20%) adhesion of the cecum to itself but in addition minimal adhesion of the cecum to adjacent structures. A score of 3 was assigned to animals when the adhesion of the cecum to itself was moderate (approximately >30 to <50%), in the absence or presence of minimal adhesion of the cecum to adjacent structures. A score of 4 was assigned to animals when the adhesion of the cecum to itself was severe (approximately >60 to <80%) or when there was moderate adhesion to adjacent structures or both. A score of 5 was assigned to animals when adhesion of the cecum to itself was so extensive that it existed as one entity (complete adhesion within itself) or when there was severe adhesion of the cecum to itself but in addition severe adhesion of the cecum to adjacent structures.

[3] = test system: post-surgical adhesion formation; assay: Post-surgical abdominal adhesion formation after cecum injury in mice (Example 1); assay type: in vivo, C57Bl mice; details: for adhesion score compared with saline control group or other treatments (Fisher's Least Significant Difference test): post-hoc analysis, Example 1; for adhesion score (mean±standard error of mean): 1 ml wash + 1 ml in peritoneal cavity, scored ten days later; for adhesion scores for all mice (individual animals): one value per mouse
Protocol: as §1, with “cage. Ten days later, the animals were again anesthetized with pentobarbital, and the abdomen was surgically opened to provide a clear view of the intestines. […] Adhesions were identified visually and by noting the difficulty of separating adjacent surfaces. Adhesion scores were assigned by an individual blinded to (that is unaware of) the test solutions used to treat the animals. The scoring was based on the extent of adhesion of the cecum to itself and to adjacent tissues or organs. […] In this example, there were six groups that were treated with test solutions containing chemical agents of interest. In addition, there was a seventh group (the control group) in which the test solution was only the vehicle in which the chemical agents of interest were dissolved. The vehicle for all six test solutions was 0.9% saline, so the seventh group (control group) received only 0.9% saline as the test solution.” for “cage.”

[4] = Text: However, there are serious limitations with regard to using adenosine for this purpose that preclude an optimal anti-adhesive efficacy. […] Dis Colon Rectum. […] Consequently the time-concentration profile of adenosine in the surgical field cannot be optimized.
[5] = scale 1 to 5, 75 millimoles/L in 0.9% saline

Compound: CCCn1c(=O)c2[nH]c(-c3ccc(S(=O)(=O)O)cc3)nc2n(CCC)c1=O [1,3-dipropyl-8-(p-sulfophenyl)xanthine]
blockade of adenosine receptor subtypes [1]: blocks all four P1 adenosine receptor subtypes | adhesion score (mean±standard error of mean) ([2]; 1,3-dipropyl-8-(p-sulfophenyl)xanthine 1 mM + saline only (group headed Saline)): 4.75±0.22 | adhesion scores (individual animals) ([2]; 1,3-dipropyl-8-(p-sulfophenyl)xanthine 1 mM + saline only): 5 (3×) and 4

Compound: Nc1ncnc2c1ncn2[C@@H]1O[C@H](CO)[C@@H](O)[C@H]1OP(=O)(O)O [2′-adenosine monophosphate]
efficacy in inhibiting formation of post-surgical abdominal adhesions (in words) ([3]; 75 millimoles/L): nearly inactive | adhesion score compared with saline control group or other treatments (Fisher's Least Significant Difference test) [3]: only slightly less than | adhesion score (mean±standard error of mean) [3, 5]: 4.08±0.15 | adhesion scores for all mice (individual animals) ([3]; scale 1 to 5, 75 millimoles/L, listed as 2′-AMP): 4 (9×) and 3 and 5 (2×)

Compound: Nc1ncnc2c1ncn2[C@@H]1O[C@H](CO)[C@@H](OP(=O)(O)O)[C@H]1O [3′-adenosine monophosphate]
efficacy in inhibiting formation of post-surgical abdominal adhesions (in words) ([3]; 75 millimoles/L): nearly inactive | adhesion score compared with saline control group or other treatments (Fisher's Least Significant Difference test) [3]: only slightly less than | adhesion score (mean±standard error of mean) [3, 5]: 4.00±0.17 | adhesion scores for all mice (individual animals) ([3]; scale 1 to 5, 75 millimoles/L, listed as 3′-AMP): 4 (8×) and 3 (2×) and 5 (2×)

concentration of stable aqueous solutions (aqueous solubility) [4]: > 75 millimoles/L
Compound: Nc1ncnc2c1ncn2[C@@H]1O[C@H](COP(=O)(O)O)[C@@H](O)[C@H]1O [5′-adenosine monophosphate]
efficacy in inhibiting formation of post-surgical abdominal adhesions (in words) ([3]; 75 millimoles/L): nearly inactive | adhesion score compared with saline control group or other treatments (Fisher's Least Significant Difference test) [3]: only slightly less than | adhesion score (mean±standard error of mean) [3, 5]: 3.82±0.18 | adhesion scores for all mice (individual animals) ([3]; scale 1 to 5, 75 millimoles/L, listed as 5′-AMP): 4 (7×) and 3 (3×) and 5

concentration of stable aqueous solutions (aqueous solubility) [4]: ≤ 23 millimoles/L
Compound: Nc1ncnc2c1ncn2[C@@H]1O[C@H](CO)[C@@H](O)[C@H]1O [Adenosine]
adhesion score (mean±standard error of mean) ([3]; scale 1 (least) to 5 (most), 23 millimoles/L in 0.9% saline): 3.08±0.15 | adhesion scores for all mice (individual animals) ([3]; scale 1 to 5, 23 millimoles/L): 3 (9×) and 4 (2×) and 2 | adhesion scores (individual animals) ([2]; 23 mM + 1,3-dipropyl-8-(p-sulfophenyl)xanthine 1 mM): 4 (3×) and 5 | adhesion score (mean±standard error of mean) ([2]; 23 millimoles/L + 1,3-dipropyl-8-(p-sulfophenyl)xanthine 1 mM): 4.25±0.22 | adhesion score compared with the saline group (Fisher's Least Significant Difference test) ([2]; in presence of 1,3-dipropyl-8-(p-sulfophenyl)xanthine 1 mM): did not significantly reduce
